Measured values from patent publication US4559323A, “A41030 Antibiotics” (Eli Lilly and Company, priority 1984, dated 1985).
Converted amounts (≈) assume the structure as drawn.

Legend:
[1] = tested on: Bacteroides melaninogenicus; assay: Agar-dilution MIC (anaerobes); type: cell-based; conditions: Table 14; Bacteroides melaninogenicus 2736
[2] = tested on: Neisseria sp.; assay: Agar-dilution MIC; type: cell-based; conditions: Table 10
Procedure: The test results are recorded in Table 10, which follows.

[3] = tested on: Haemophilus parainfluenzae; assay: Agar-dilution MIC; type: cell-based; conditions: Table 18, 24 hours
[4] = mice, administered intraperitoneally
[5] = tested on: Streptococcus pyogenes C203; assay: Disc-plate sensitivity procedure; type: cell-based
[6] = tested on: S. pyogenes; assay: Experimental bacterial infection in mice, subcutaneous ED50; type: in vivo; conditions: two doses subcutaneously
Procedure: (§1) All of the A41030 factors tested have shown in vivo antimicrobial activity against experimental bacterial infections. When two doses of test compound were administered subcutaneously to mice in illustrative infections, the activity observed is measured as an ED50 value [effective dose in mg./kg. to protect fifty percent of the test animals: See Warren Wick, et al., J. Bacteriol. 81, 233-235 (1961)].

[7] = tested on: S. pneumoniae; assay: as above; type: in vivo; conditions: two doses subcutaneously
Procedure: as §1

[8] = tested on: Staph. aureus; assay: as above; type: in vivo; conditions: two doses subcutaneously
Procedure: as §1

[9] = tested on: Escherichia coli; assay: Agar-dilution MIC; type: cell-based; conditions: Table 17; 24 hours; Escherichia coli EC14
[10] = tested on: Streptococcus pneumoniae Park I; assay: Disc-plate sensitivity procedure; type: cell-based
[11] = tested on: Streptococcus pyogenes; assay: Agar-dilution MIC; type: cell-based
Source text: The agar-dilution procedure described by the International Collaborative study (ICS) group was used to determine the minimum inhibitory concentrations (MIC's).

[12] = tested on: Streptococcus sp. (Group D) 9960; assay: Disc-plate sensitivity procedure; type: cell-based
[13] = tested on: Staphylococcus aureus; assay: Disc-plate sensitivity procedure; type: cell-based; conditions: Table 8
[14] = tested on: Streptococcus faecalis; assay: Agar-dilution MIC; type: cell-based; conditions: Table 7; Streptococcus faecalis X66
[15] = tested on: pseudorabies; conditions: in vitro at 20 mcg./ml.
[16] = tested on: Viridans streptococcus; assay: Agar-dilution MIC; type: cell-based; conditions: Table 11
[17] = tested on: Escherichia coli EC14; assay: Disc-plate sensitivity procedure; type: cell-based
[18] = tested on: Streptococcus sp. Group B; assay: Agar-dilution MIC; type: cell-based; conditions: Table 18, 24 hours
Source text: The in vitro activity of antibiotic A41030 factors A and B against a number of representative aerobic, gram-positive bacteria, including Streptococcus sp. Group D, has been determined using a standard agar-dilution assay.

For NC1C(=O)NC2Cc3ccc(c(Cl)c3)Oc3cc4cc(c3O)Oc3ccc(cc3Cl)C(O)C3NC(=O)C(NC(=O)C4NC(=O)C(NC2=O)c2cc(O)cc(c2)Oc2cc1ccc2O)c1cc(Cl)c(O)c(c1)-c1c(O)cc(O)cc1C(C(=O)O)NC3=O (stereo not drawn) [A41030 factor A], the MIC [1] was 4 µg/mL (≈ 3.24 µM), the MIC ([2]; strain L. Nance) was 4.0 µg/mL (≈ 3.24 µM) and the MIC ([2]; strain Mitchell) was 4.0 µg/mL (≈ 3.24 µM). It also gave an MIC ([2]; strain Sanders) of 1.0 µg/mL (≈ 0.811 µM), an MIC ([2]; strain Schultz) of 8.0 µg/mL (≈ 6.49 µM) and an MIC ([2]; strain Woods) of 4.0 µg/mL (≈ 3.24 µM). For the same compound, the MIC ([3]; Haemophilus parainfluenzae 7901) was 16 µg/mL (≈ 13 µM), the MIC ([3]; Haemophilus parainfluenzae 9796) was 16 µg/mL (≈ 13 µM) and the LD50 [4] was greater than 300 mg/kg. It also gave an acute toxicity [4] greater than 300 mg/kg, a Zone diameter ([5]; Table 8, 10 μg./disc) of 12.0 mm and a Zone diameter ([5]; Table 8, 100 μg./disc) of 15.0 mm. For the same compound, the ED50 [6] was 2.8 mg/kg, the ED50 [7] was 1.68 mg/kg and the ED50 [8] was 1.4 mg/kg. It also gave an MIC [9] of 128 µg/mL (≈ 104 µM), a Zone diameter ([10]; Table 8, 10 μg./disc) of 15.0 mm and a Zone diameter ([10]; Table 8, 100 μg./disc) of 17.0 mm. It also gave an MIC ([11]; Table 11, S. pyogenes 9943) of 0.25 µg/mL (≈ 0.203 µM), an MIC ([11]; Table 11, S. pyogenes 10389) of 0.25 µg/mL (≈ 0.203 µM) and an MIC ([11]; Table 11, S. pyogenes 12344) of 0.5 µg/mL (≈ 0.405 µM). For the same compound, the MIC ([11]; Table 11, S. pyogenes C203) was 0.25 µg/mL (≈ 0.203 µM), the MIC ([11]; Table 11, S. pyogenes M-6517) was 0.25 µg/mL (≈ 0.203 µM) and the MIC ([11]; Table 17, 24 hours, Streptococcus pyogenes C203) was 0.5 µg/mL (≈ 0.405 µM). The MIC ([11]; Table 18, 24 hours, Streptococcus pyogenes C203) was 0.25 µg/mL (≈ 0.203 µM), the Zone diameter ([12]; Table 8, 10 μg./disc) was 16.4 mm and the Zone diameter ([12]; Table 8, 100 μg./disc) was 20.5 mm. It also gave a Zone diameter ([13]; S. aureus 3055 benzylpenicillin-susceptible, 10 μg./disc) of 17.2 mm, a Zone diameter ([13]; S. aureus 3055 benzylpenicillin-susceptible, 100 μg./disc) of 20.8 mm and a Zone diameter ([13]; S. aureus 3074 benzylpenicillin-resistant, 10 μg./disc) of 16.7 mm. For the same compound, the Zone diameter ([13]; S. aureus 3074 benzylpenicillin-resistant, 100 μg./disc) was 19.8 mm, the Zone diameter ([13]; S. aureus 3130 benzylpenicillin- and methicillin-resistant, 10 μg./disc) was 17.4 mm and the Zone diameter ([13]; S. aureus 3130 benzylpenicillin- and methicillin-resistant, 100 μg./disc) was 21.4 mm. The MIC [14] was less than 0.5 µg/mL, the activity against pseudorabies [15] was “shown activity” and the MIC ([16]; Viridans streptococcus SM-1134) was 0.5 µg/mL (≈ 0.405 µM). For the same compound, the MIC ([16]; Viridans streptococcus SSI-910) was 0.25 µg/mL (≈ 0.203 µM), the MIC ([16]; Viridans streptococcus SSII-895) was 0.25 µg/mL (≈ 0.203 µM) and the Zone diameter ([17]; Table 8, 10 μg./disc) was 0 mm. For the same compound, the Zone diameter ([17]; Table 8, 100 μg./disc) was 8.0 mm, the MIC ([18]; Streptococcus sp. Group B 5) was 1 µg/mL (≈ 0.811 µM) and the MIC ([18]; Streptococcus sp. Group B 14) was 0.06 µg/mL (≈ 0.0486 µM).
